Source: patent US12697330B2, “Therapeutic methods using vadadustat” (Akebia Therapeutics, Inc., priority 2021, dated 2026)

Test system: hemoglobin (Hb)
Assay: Phase 2 study in hemodialysis subjects converting from epoetin alfa, Main Study: efficacy (hemoglobin)
Format: in vivo, human
Text: The primary objective was to assess the efficacy and safety of daily dosing of vadadustat compared to epoetin alfa for 12 weeks in hemodialysis subjects. Additional objectives included to assess the efficacy and safety of three times weekly (TIW) dosing of vadadustat in selected hemodialysis subjects who have been successfully managed with daily dosing of vadadustat through Week 12, to evaluate the PK/PD of daily and TIW dosing of vadadustat in hemodialysis subjects compared to epoetin alfa, and to assess the efficacy and safety of several dosing strategies of vadadustat compared to epoetin alfa during a 20-week Treatment Period in hemodialysis subjects.
The Main study population consisted of adult subjects receiving chronic, outpatient in-center hemodialysis three times weekly (TIW), with 2 screening hemoglobin (Hb) values between 8.5 and 11.0 g/dL (inclusive) and on maintenance treatment with epoetin alfa <300 U/kg/week.
Efficacy Endpoints. The primary endpoint was the mean change in Hb between Baseline (average pretreatment Hb) and the primary evaluation period (average Hb from Weeks 10 to 12). Secondary endpoints included proportion of subjects with Hb values within the target range (10.0 to 11.0 g/dL, inclusive) at the primary evaluation period (Weeks 10-12) and for subjects who transitioned to TIW vadadustat dosing, mean change in Hb from primary evaluation period (average Hb from Weeks 10-12) to the secondary period (average Hb from Weeks 18-20). Other secondary endpoints included mean change in Hb from Baseline (average pretreatment Hb) and the secondary evaluation period (average Hb from Weeks 18-20), proportion of subjects with Hb values within the target range (10.0 to 11.0 g/dL, inclusive) at the secondary evaluation period (Weeks 18 to 20), for subjects who transitioned to TIW vadadustat dosing, proportion of subjects with Hb values within the target range (10.0 to 11.0 g/dL, inclusive) at the secondary evaluation period (Weeks 18-20), proportion of subjects with a mean increase in Hb from Baseline to the primary evaluation period ≥0.5 g/dL (average Hb from Weeks 10-12) or with Hb values within the target range (10.0 to 11.0 g/dL, inclusive) at the primary evaluation period (Weeks 10-12), proportion of subject with a mean increase in Hb from Baseline to the secondary evaluation period ≥0.5 g/dL (average Hb from Weeks 18-20) or with Hb values within the target range (10.0 to 11.0 g/dL, inclusive) at the secondary evaluation period (Weeks 18-20), intravenous (IV) iron supplementation, ESA rescue, and RBC transfusion.
Study Design. This was a Phase 2, randomized, open-label study to evaluate vadadustat for the treatment of anemia in hemodialysis subjects converting from epoetin alfa therapy. For all subjects (Main study and ESA hyporesponder parallel study), the study included a Screening Period, a study Treatment Period, and a Safety Follow-Up Period as described below. PK and PD sampling were done throughout the study. The aim was to achieve and maintain Hb levels within the target range of 10.0 to 11.0 g/dL, inclusive, while targeting the middle of the range and minimizing excursions outside the target range.
Randomization. Subjects were randomized to either a vadadustat treatment arm or epoetin alfa treatment arm. Randomization was stratified by mean weekly epoetin alfa dose calculated over a period of 8 weeks prior to SV2: low epoetin alfa dose group (≤90 U/kg/week) or high epoetin alfa dose group (>90 to <300 U/kg/week). In the low epoetin alfa dose group, subjects were randomized in a 3:3:2 ratio to receive either an initial vadadustat daily dose of 450 mg (3 tablets) or 300 mg (2 tablets), or epoetin alfa. In the high epoetin alfa dose group, subjects were randomized in a 3:3:3:2 ratio to receive either an initial vadadustat daily dose of 600 mg (4 tablets), 450 mg (3 tablets) or 300 mg (2 tablets), or epoetin alfa.
Study Treatment Period (Baseline/Day 1 to Week 20). […]

[1] = Primary Evaluation Period (Average of Weeks 10 to 12), Vada 300 mg, High Epoetin Alfa (>90 to <300 U/kg/week)
[2] = Primary Evaluation Period (Average of Weeks 10 to 12), Vada 300 mg, Low Epoetin Alfa (<90 U/kg/week)
[3] = Primary Evaluation Period (Average of Weeks 10 to 12), Vada 450 mg, High Epoetin Alfa (>90 to <300 U/kg/week)
[4] = Primary Evaluation Period (Average of Weeks 10 to 12), Vada 450 mg, Low Epoetin Alfa (<90 U/kg/week)
[5] = Primary Evaluation Period (Average of Weeks 10 to 12), Vada 600 mg, High Epoetin Alfa (>90 to <300 U/kg/week)
[6] = Secondary Evaluation Period (Average of Weeks 18 to 20), Vada 300 mg, High Epoetin Alfa (>90 to <300 U/kg/week)
[7] = Secondary Evaluation Period (Average of Weeks 18 to 20), Vada 300 mg, Low Epoetin Alfa (<90 U/kg/week)
[8] = Secondary Evaluation Period (Average of Weeks 18 to 20), Vada 450 mg, High Epoetin Alfa (>90 to <300 U/kg/week)
[9] = Secondary Evaluation Period (Average of Weeks 18 to 20), Vada 450 mg, Low Epoetin Alfa (<90 U/kg/week)
[10] = Secondary Evaluation Period (Average of Weeks 18 to 20), Vada 600 mg, High Epoetin Alfa (>90 to <300 U/kg/week)
[11] = Vada 300 mg, High Epoetin Alfa (>90 to <300 U/kg/week)
[12] = Vada 300 mg, Low Epoetin Alfa (<90 U/kg/week)
[13] = Vada 450 mg, High Epoetin Alfa (>90 to <300 U/kg/week)
[14] = Vada 450 mg, Low Epoetin Alfa (<90 U/kg/week)
[15] = Vada 600 mg, High Epoetin Alfa (>90 to <300 U/kg/week)

O=C(O)CNC(=O)c1ncc(-c2cccc(Cl)c2)cc1O [Compound 1, {[5-(3-chlorophenyl)-3-hydroxypyridine-2-carbonyl]amino}acetic acid]
Subjects with Hb Higher than Target range (10.0 to 11.0 g/dL), number (percentage of N2) [1]: 0 | Subjects with Hb Lower than Target range (10.0 to 11.0 g/dL), number (percentage of N2) [1]: 11 (91.7) | Subjects with Hb Within Target range (10.0 to 11.0 g/dL), number (percentage of N2) [1]: 1 (8.3) | Subjects with Hb Higher than Target range (10.0 to 11.0 g/dL), number (percentage of N2) [2]: 2 (6.7) | Subjects with Hb Lower than Target range (10.0 to 11.0 g/dL), number (percentage of N2) [2]: 16 (53.3) | Subjects with Hb Within Target range (10.0 to 11.0 g/dL), number (percentage of N2) [2]: 12 (40.0) | Subjects with Hb Higher than Target range (10.0 to 11.0 g/dL), number (percentage of N2) [3]: 4 (22.2) | Subjects with Hb Lower than Target range (10.0 to 11.0 g/dL), number (percentage of N2) [3]: 10 (55.6) | Subjects with Hb Within Target range (10.0 to 11.0 g/dL), number (percentage of N2) [3]: 4 (22.2) | Subjects with Hb Higher than Target range (10.0 to 11.0 g/dL), number (percentage of N2) [4]: 6 (20.0) | Subjects with Hb Lower than Target range (10.0 to 11.0 g/dL), number (percentage of N2) [4]: 11 (36.7) | Subjects with Hb Within Target range (10.0 to 11.0 g/dL), number (percentage of N2) [4]: 13 (43.3) | Subjects with Hb Higher than Target range (10.0 to 11.0 g/dL), number (percentage of N2) [5]: 2 (14.3) | Subjects with Hb Lower than Target range (10.0 to 11.0 g/dL), number (percentage of N2) [5]: 8 (57.1) | Subjects with Hb Within Target range (10.0 to 11.0 g/dL), number (percentage of N2) [5]: 4 (28.6) | Subjects with Hb Higher than Target range (10.0 to 11.0 g/dL), number (percentage of N2) [6]: 1 (14.3) | Subjects with Hb Lower than Target range (10.0 to 11.0 g/dL), number (percentage of N2) [6]: 4 (57.1) | Subjects with Hb Within Target range (10.0 to 11.0 g/dL), number (percentage of N2) [6]: 2 (28.6) | Subjects with Hb Higher than Target range (10.0 to 11.0 g/dL), number (percentage of N2) [7]: 4 (15.4) | Subjects with Hb Lower than Target range (10.0 to 11.0 g/dL), number (percentage of N2) [7]: 16 (61.5) | Subjects with Hb Within Target range (10.0 to 11.0 g/dL), number (percentage of N2) [7]: 6 (23.1) | Subjects with Hb Higher than Target range (10.0 to 11.0 g/dL), number (percentage of N2) [8]: 2 (14.3) | Subjects with Hb Lower than Target range (10.0 to 11.0 g/dL), number (percentage of N2) [8]: 9 (64.3) | Subjects with Hb Within Target range (10.0 to 11.0 g/dL), number (percentage of N2) [8]: 3 (21.4) | Subjects with Hb Higher than Target range (10.0 to 11.0 g/dL), number (percentage of N2) [9]: 3 (12.5) | Subjects with Hb Lower than Target range (10.0 to 11.0 g/dL), number (percentage of N2) [9]: 14 (58.3) | Subjects with Hb Within Target range (10.0 to 11.0 g/dL), number (percentage of N2) [9]: 7 (29.2) | Subjects with Hb Higher than Target range (10.0 to 11.0 g/dL), number (percentage of N2) [10]: 1 (10.0) | Subjects with Hb Lower than Target range (10.0 to 11.0 g/dL), number (percentage of N2) [10]: 7 (70.0) | Subjects with Hb Within Target range (10.0 to 11.0 g/dL), number (percentage of N2) [10]: 2 (20.0) | Change from Baseline in Hb at Primary Evaluation Period, Mean (SD) [11]: −1.048 (0.730) g/dL | Change from Baseline in Hb at Primary Evaluation Period, Median [11]: -0.967 g/dL | Change from Baseline in Hb at Secondary Evaluation Period, Mean (SD) [11]: 0.017 (1.086) g/dL | Change from Baseline in Hb at Secondary Evaluation Period, Median [11]: -0.325 g/dL | Hb at Primary Evaluation Period (Average of Weeks 10 to 12), Mean (SD) [11]: 8.82 (0.761) g/dL | Hb at Primary Evaluation Period (Average of Weeks 10 to 12), Median [11]: 8.750 g/dL | Hb at Secondary Evaluation Period (Average of Weeks 18 to 20), Mean (SD) [11]: 9.88 (1.027) g/dL | Hb at Secondary Evaluation Period (Average of Weeks 18 to 20), Median [11]: 9.575 g/dL | Change from Baseline in Hb at Primary Evaluation Period, Mean (SD) [12]: −0.421 (0.732) g/dL | Change from Baseline in Hb at Primary Evaluation Period, Median [12]: -0.450 g/dL | Change from Baseline in Hb at Secondary Evaluation Period, Mean (SD) [12]: −0.327 (1.086) g/dL | Change from Baseline in Hb at Secondary Evaluation Period, Median [12]: -0.300 g/dL | Hb at Primary Evaluation Period (Average of Weeks 10 to 12), Mean (SD) [12]: 9.78 (0.742) g/dL | Hb at Primary Evaluation Period (Average of Weeks 10 to 12), Median [12]: 9.767 g/dL | Hb at Secondary Evaluation Period (Average of Weeks 18 to 20), Mean (SD) [12]: 9.86 (0.932) g/dL | Hb at Secondary Evaluation Period (Average of Weeks 18 to 20), Median [12]: 9.775 g/dL | Change from Baseline in Hb at Primary Evaluation Period, Mean (SD) [13]: −0.130 (1.033) g/dL | Change from Baseline in Hb at Primary Evaluation Period, Median [13]: -0.250 g/dL | Change from Baseline in Hb at Secondary Evaluation Period, Mean (SD) [13]: −0.458 (0.895) g/dL | Change from Baseline in Hb at Secondary Evaluation Period, Median [13]: -0.575 g/dL | Hb at Primary Evaluation Period (Average of Weeks 10 to 12), Mean (SD) [13]: 9.96 (1.121) g/dL | Hb at Primary Evaluation Period (Average of Weeks 10 to 12), Median [13]: 9.750 g/dL | Hb at Secondary Evaluation Period (Average of Weeks 18 to 20), Mean (SD) [13]: 9.63 (0.954) g/dL | Hb at Secondary Evaluation Period (Average of Weeks 18 to 20), Median [13]: 9.475 g/dL | Change from Baseline in Hb at Primary Evaluation Period, Mean (SD) [14]: −0.074 (1.085) g/dL | Change from Baseline in Hb at Primary Evaluation Period, Median [14]: 0.017 g/dL | Change from Baseline in Hb at Secondary Evaluation Period, Mean (SD) [14]: −0.273 (0.827) g/dL | Change from Baseline in Hb at Secondary Evaluation Period, Median [14]: -0.300 g/dL | Hb at Primary Evaluation Period (Average of Weeks 10 to 12), Mean (SD) [14]: 10.08 (1.226) g/dL | Hb at Primary Evaluation Period (Average of Weeks 10 to 12), Median [14]: 10.550 g/dL | Hb at Secondary Evaluation Period (Average of Weeks 18 to 20), Mean (SD) [14]: 9.91 (0.909) g/dL | Hb at Secondary Evaluation Period (Average of Weeks 18 to 20), Median [14]: 9.917 g/dL | Change from Baseline in Hb at Primary Evaluation Period, Mean (SD) [15]: −0.541 (1.124) g/dL | Change from Baseline in Hb at Primary Evaluation Period, Median [15]: -0.133 g/dL | Change from Baseline in Hb at Secondary Evaluation Period, Mean (SD) [15]: −0.500 (1.025) g/dL | Change from Baseline in Hb at Secondary Evaluation Period, Median [15]: -0.300 g/dL | Hb at Primary Evaluation Period (Average of Weeks 10 to 12), Mean (SD) [15]: 9.62 (1.026) g/dL | Hb at Primary Evaluation Period (Average of Weeks 10 to 12), Median [15]: 9.233 g/dL | Hb at Secondary Evaluation Period (Average of Weeks 18 to 20), Mean (SD) [15]: 9.57 (0.871) g/dL | Hb at Secondary Evaluation Period (Average of Weeks 18 to 20), Median [15]: 9.450 g/dL
